Read-outs that look alike come from different tables or passages of the source.
Key:
[1] = test system: wheat leaf rust, Puccinia recondita; assay: whole plant or invertebrate; type: in vivo; conditions: foliar
[2] = test system: wheat leaf rust, Puccinia recondita; assay: whole plant or invertebrate; type: in vivo; conditions: foliar; remark: listed apart in the source
[3] = test system: wheat leaf rust, Puccinia recondita; type: in vivo
[4] = test system: wheat leaf rust, Puccinia recondita; assay: Foliar systemic activity on leaf rust; type: in vivo
Text: Another type of systemic test was run in which pots of approximately 5 inch high wheat plants were sprayed with varying concentrations of the test compound. Thirty-six hours later they were sprayed six minutes in a rain machine which amounted to about one inch of normal rainfall. The plants were then placed in a greenhouse for 7 days and then inoculated with a spore suspension of wheat leaf rust, Puccinia recondita. About 7 days later lesion counts were made on ten leaves representing the sprayed leaves and new growth from each replicate and compared with similar pots of wheat plants which were untreated with a chemical and the percent disease control determined. Disease control on the new growth is a measure of systemic activity. The commercial product known by the trademarked name Plantvax, which is 2,3-dihydro-5-carboxanilido-6-methyl-1,4-oxathiin-4,4-dioxide, was used as a standard.

[5] = test system: Pythium ultimum; conditions: in vivo

CCCCn1cnnc1SC(=O)c1ccc(OC)cc1 [Example 121, 3-(4-methoxybenzoylmercapto)-4-n-butyl-1,2,4-triazole]
pest or weed control at 280.212 g/ha ([1]; read-out: % Control (without rain), foliar, 0.25 lb.): 90%
pest or weed control at 1120.85 g/ha ([1]; read-out: % Control (without rain), foliar, 1 lb.): 98%
pest or weed control at 280.212 g/ha ([2]; read-out: % Control (with 1" of rain), foliar, 0.25 lb., 1" of rain): 100%
pest or weed control at 1120.85 g/ha ([2]; read-out: % Control (with 1" of rain), foliar, 1 lb., 1" of rain): 100%
% Systemic Wheat Leaf Rust Control ([3]; 2.5 ppm in soil): 98%
% Systemic Wheat Leaf Rust Control ([3]; 5 ppm in soil): 100%
% Systemic Wheat Leaf Rust Control ([3]; 10 ppm in soil): 100%
% Rust Control, New growth ([4]; 1/2 lb./100 gal.): 92%
% Rust Control, Sprayed Leaf ([4]; 1/2 lb./100 gal.): 95%
% Rust Control, New growth ([4]; 1/6 lb./100 gal.): 79%
% Rust Control, Sprayed Leaf ([4]; 1/6 lb./100 gal.): 81%
% Rust Control, New growth ([4]; 1/12 lb./100 gal.): 77%
% Rust Control, Sprayed Leaf ([4]; 1/12 lb./100 gal.): 91%
control of Pythium ultimum [5]: excellent control

From patent US4120864A, “1,2,4-4H-triazole derivatives” (Rohm and Haas Company, priority 1972, dated 1978)
